Source: patent US20210401931A1, “METHODS AND MATERIALS FOR TREATING CANCER” (Mayo Foundation for Medical Education and Research, priority 2018, published 2021)
Entries after “also recorded” stand apart in the source; their conditions may differ.

B1: p52 (other, human, UniProt Q00653 1-454, looked up)
chain: MESCYNPGLDGIIEYDDFKLNSSIVEPKEPAPETADGPYLVIVEQPKQRGFRFRYGCEGPSHGGLPGASSEKGRKTYPTVKICNYEGPAKIEVDLVTHSDPPRAHAHSLVGKQCSELGICAVSVGPKDMTAQFNNLGVLHVTKKNMMGTMIQKLQRQRLRSRPQGLTEAEQRELEQEAKELKKVMDLSIVRLRFSAFLRASDGSFSLPLKPVISQPIHDSKSPGASNLKISRMDKTAGSVRGGDEVYLLCDKVQKDDIEVRFYEDDENGWQAFGDFSPTDVHKQYAIVFRTPPYHKMKIERPVTVFLQLKRKRGGDVSDSKQFTYYPLVEDKEEVQRKRRKALPTFSQPFGGGSHMGGGSGGAAGGYGGAGGGGSLGFFPSSLAYSPYQSGAGPMGCYPGGGGGAQMAATVPSRDSGEEAAEPSAPSRTPQCEPQAPEMLQRAREYNARLFGLA
B2: RelB (other, human, UniProt Q01201 1-579, looked up)
chain: MLRSGPASGPSVPTGRAMPSRRVARPPAAPELGALGSPDLSSLSLAVSRSTDELEIIDEYIKENGFGLDGGQPGPGEGLPRLVSRGAASLSTVTLGPVAPPATPPPWGCPLGRLVSPAPGPGPQPHLVITEQPKQRGMRFRYECEGRSAGSILGESSTEASKTLPAIELRDCGGLREVEVTACLVWKDWPHRVHPHSLVGKDCTDGICRVRLRPHVSPRHSFNNLGIQCVRKKEIEAAIERKIQLGIDPYNAGSLKNHQEVDMNVVRICFQASYRDQQGQMRRMDPVLSEPVYDKKSTNTSELRICRINKESGPCTGGEELYLLCDKVQKEDISVVFSRASWEGRADFSQADVHRQIAIVFKTPPYEDLEIVEPVTVNVFLQRLTDGVCSEPLPFTYLPRDHDSYGVDKKRKRGMPDVLGELNSSDPHGIESKRRKKKPAILDHFLPNHGSGPFLPPSALLPDPDFFSGTVSLPGLEPPGGPDLLDDGFAYDPTAPTLFTMLDLLPPAPPHASAVVCSGGAGAVVGETPGPEPLTLDSYQAPGPGDGGTASLVGSNMFPNHYREAAFGGGLLSPGPEAT
B3: c-Rel (other, human, UniProt Q04864 2-619, looked up)
chain: ASGAYNPYIEIIEQPRQRGMRFRYKCEGRSAGSIPGEHSTDNNRTYPSIQIMNYYGKGKVRITLVTKNDPYKPHPHDLVGKDCRDGYYEAEFGQERRPLFFQNLGIRCVKKKEVKEAIITRIKAGINPFNVPEKQLNDIEDCDLNVVRLCFQVFLPDEHGNLTTALPPVVSNPIYDNRAPNTAELRICRVNKNCGSVRGGDEIFLLCDKVQKDDIEVRFVLNDWEAKGIFSQADVHRQVAIVFKTPPYCKAITEPVTVKMQLRRPSDQEVSESMDFRYLPDEKDTYGNKAKKQKTTLLFQKLCQDHVETGFRHVDQDGLELLTSGDPPTLASQSAGITVNFPERPRPGLLGSIGEGRYFKKEPNLFSHDAVVREMPTGVSSQAESYYPSPGPISSGLSHHASMAPLPSSSWSSVAHPTPRSGNTNPLSSFSTRTLPSNSQGIPPFLRIPVGNDLNASNACIYNNADDIVGMEASSMPSADLYGISDPNMLSNCSVNMMTTSSDSMGETDNPRLLSMNLENPSCNSVLDPRDLRQLHQMSSSSMSAGANSNTTVFVSQSDAFEGSDFSCADNSMINESGPSNSTNPNSHGFVQDSQYSGIGSMQNEQLSDSFPYEFFQV

Columns and labels:
PD-L1 mRNA = PD-L1 mRNA expression by RT-qPCR in PC-3 cells treated with chemicals; format: cell-based, human; details: 24 hours; for PD-L1 mRNA expression: RT-qPCR; for palbociclib-induced elevation of PD-L1: co-treatment with palbociclib
Protocol: FIGS. 1A-K. RB suppresses PD-L1 mRNA expression. (A) PC-3 cell were treated with indicated chemicals for 24 hours. Cells were harvested for RT-qPCR. All data were shown as mean values±SD (n=3). * P<0.05, ** P<0.01, *** P<0.001. (B) PC-3 cells were infected with lentivirus expressing control or CDK4 and CDK6-specific shRNAS. 72 hours after infection, cells were harvested for RT-qPCR. All data were shown as mean values±SD (n=3). *** P<0.001. (C-F) PC-3 cells were infected with lentivirus expressing control or RB1-specific shRNAs. 48 hours after infection, PD-L1 protein levels were determined by western blotting (C), RT-qPCR (D), FACS (E), and IFC (F). All data were shown as mean values±SD (n=3). * P<0.05, ** P<0.01, *** P<0.001. (G) PD-L1 mRNA levels were determined by RT-qPCR in SKO and DKO mouse prostate tumor cells. All data were shown as mean values±SD (n=3). * P<0.05, ** P<0.01, *** P<0.001. (H-J) SKO (H), DKO (I), and Rb^−/−PrE (J) cells were treated with palbociclib for 24 hours. Cells were harvested for RT-qPCR. All data were shown as mean values±SD (n=3). * P<0.05, ** P<0.01, *** P<0.001. (K) The putative copy-number calls for RB1 were determined using GISTC 2.0, and the mRNA expression for CD274(PD-L1) was measured by log 2(RPKM), here RPKM stands for Reads Per Kilobase of transcript per Million mapped reads. […] The nonparametric Mann-Whitney U test was used for the statistical test.
FIGS. 8A-D. (A) PC-3, MIA PaCa-2, H1299, SK-Hep1, and PTEN-CaP8 cells were treated with different doses of palbociclib for 24 hours. Cells were harvested for RT-qPCR. All data were shown as mean values±SD (n=3). * P<0.05, ** P<0.01. (B) PC-3 cell were treated with indicated chemicals for 24 hours. Cells were harvested for RT-qPCR. All data were shown as mean values±SD (n=3). Ns, not significant, * P<0.05, ** P<0.01. (C, D) PC-3 cells were infected with lentivirus expressing control shRNA or RB1-specific shRNA. 24 hours after puromycin selection, cells were treated with or without Helenalin (2 μM) for 24 hours. Cells were harvested for western blotting analysis (C) and RT-qPCR (D). All data were shown as mean values±SD (n=3). Ns, not significant, *** P<0.001.
FIGS. 13A-F. (A, B) PC-3 cells were treated with or without gamma irradiation (IR) (12 Gy). 24 hours post treatment, cells were treated with or without Helenalin (2 μM). 24 hours after treatment, cells were harvested for western blotting analysis (A) and RT-qPCR analysis (B). All data were shown as mean values±SD (n=3). “ns”=not significant, *** P<0.001. (C) PTEN-CaP8 cells were infected with lentivirus expression Tsin control or Tsin-RL S249D/T252D peptide. 72 hours post infection, cell were harvested for western blotting analysis. (D, E) PTEN-CaP8 cells were infected with lentivirus expression Tsin control or Tsin-RL S249D/T252D peptide. 72 hours post infection, cells were treated with or without gamma irradiation (12 Gy) for 48 hours. Cells were harvested for MTS assay (D) and RT-qPCR (E). All data were shown as mean values±SD (n=3). “ns”=not significant, ** P<0.01; *** P<0.001. (F) Schematic diagram depicting the treatment plan for mice bearing subcutaneous PTEN-CaP8 tumors.
Total RNA was isolated using TRIzol reagent (Thermo Fisher Scientific). The NanoDrop 2000 spectrophotometer (Thermo Fisher Scientific) was used to assess RNA yield and quality. RNA was reversely transcribed using Superscript reverse transcriptase (Thermo Fisher Scientific) following manufacturer's instructions. Quantitative real-time PCR was performed by mixing cDNA, gene-specific primers, and IQ SYRB Green Supermix and detected by iCycler QTX detection system (Bio-Rad). The 2-ΔCt method was used to quantitate fold changes by normalizing to GAPDH. Primers for RT-qPCR are provided Table 4.

[1] = target: T1, retinoblastoma protein RB (endogenous) (human, UniProt P06400 2-928); assay: co-IP of endogenous proteins in PC-3 cells (FIGS. 2A and 18A)
T1 construct: Endogenous protein of cell lysates, phosphorylation state as in the cells; also called RB1; endogenous RB
T1 sequence (looked up): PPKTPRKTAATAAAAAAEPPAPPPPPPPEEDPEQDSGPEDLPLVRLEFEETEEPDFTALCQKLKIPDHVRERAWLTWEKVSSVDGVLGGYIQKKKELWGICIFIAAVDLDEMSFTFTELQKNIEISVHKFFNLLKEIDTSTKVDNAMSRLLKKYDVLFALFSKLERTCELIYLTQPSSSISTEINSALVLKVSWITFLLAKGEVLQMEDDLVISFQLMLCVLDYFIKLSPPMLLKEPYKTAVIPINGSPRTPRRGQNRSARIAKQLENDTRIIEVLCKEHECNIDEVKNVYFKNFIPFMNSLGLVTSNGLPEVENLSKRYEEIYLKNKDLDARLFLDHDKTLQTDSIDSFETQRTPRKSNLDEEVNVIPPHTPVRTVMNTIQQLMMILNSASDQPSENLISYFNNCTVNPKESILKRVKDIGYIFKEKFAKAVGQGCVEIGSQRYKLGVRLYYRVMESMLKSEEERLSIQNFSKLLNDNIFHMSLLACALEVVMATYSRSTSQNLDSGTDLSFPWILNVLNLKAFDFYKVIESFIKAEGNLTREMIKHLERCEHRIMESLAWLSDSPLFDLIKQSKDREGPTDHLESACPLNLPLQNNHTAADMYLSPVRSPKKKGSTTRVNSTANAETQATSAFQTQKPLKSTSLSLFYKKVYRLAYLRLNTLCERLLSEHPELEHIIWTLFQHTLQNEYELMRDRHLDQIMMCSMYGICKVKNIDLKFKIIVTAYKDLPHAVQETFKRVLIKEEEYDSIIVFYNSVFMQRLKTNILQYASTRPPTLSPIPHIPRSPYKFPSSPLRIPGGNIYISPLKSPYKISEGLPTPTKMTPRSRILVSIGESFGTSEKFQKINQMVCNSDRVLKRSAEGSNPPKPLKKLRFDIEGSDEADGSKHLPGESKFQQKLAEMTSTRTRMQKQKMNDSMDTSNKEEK

Molecule	PD-L1 mRNA expression (PD-L1 mRNA; PC-3 cells)	binding result [1]	further results
Cc1sc2c(c1C)C(c1ccc(Cl)cc1)=N[C@@H](CC(=O)OC(C)(C)C)c1nnc(C)n1-2 [JQ1]	dramatic downregulation	–	–
CN1CC[C@H](c2c(O)cc(O)c3c(=O)cc(-c4ccccc4Cl)oc23)[C@H](O)C1 [flavopiridol]	dramatic downregulation	–	palbociclib-induced elevation of PD-L1 (PD-L1 mRNA; PC-3 cells): completely abolished
C=C1C(=O)O[C@@H]2C[C@@H](C)[C@@H]3C=CC(=O)[C@@]3(C)[C@@H](O)[C@H]12 [helenalin]	decreased	–	RB knockdown-induced PD-L1 upregulation (PD-L1 mRNA; PC-3 cells with RB1 shRNA, Helenalin 2 μM): completely blocked; also recorded: inhibited; gamma irradiation-induced PD-L1 expression (PD-L1 mRNA; PC-3 cells, 12 Gy, Helenalin 2 μM): abrogated; palbociclib-induced elevation of PD-L1 (PD-L1 mRNA; PC-3 cells): completely abolished
CC[C@H](CO)Nc1nc(NCc2ccccc2)c2ncn(C(C)C)c2n1 [roscovitine]	dramatic downregulation	–	–
B1	–	no binding	–
B2	–	no binding	–
B3	–	no binding	–
